{"source": "patent US11191772B2", "about": "“Use” (DSM IP ASSETS B.V., priority 2017, dated 2021)", "experiment_in_all_cases": "Antimicrobial efficacy challenge test (in analogy to NF EN ISO11930)", "key": {"[1]": {"tested_on": "Aspergillus brasiliensis", "format": "cell-based", "conditions": "22° C.", "procedure": "(§1) The antimicrobial efficacy is assessed in analogy to the regulatory challenge test method (NF EN ISO11930). Thus, a solution of Erythrulose from DSM Nutritional products in two different concentrations was prepared under sterile conditions. For this the Erythrulose was solubilized in physiological serum with 0.85 wt.-% NaCl. Phenoxyethanol was solubilized in a physiological serum with 0.85 wt.-% NaCl further comprising 5 wt.-% ethanol to ensure solubility. The solutions were deposed in 96-deep well plates (1.6 ml/well). The wells were contaminated with the respective bacterial or the fungal strains at 1.9*10^5 to 8.1*10^5 cfu/ml for the bacteria and 3.3*10^3 to 3.8*10^4 cfu/ml for the fungi to obtain the initial contamination as outlined in table 1 and 2. After contamination each well was thoroughly mixed to ensure a homogeneous distribution of the microorganism. Then each plate was incubated at 22° C. for 24 h. The counting of the (remaining) population was carried out 24 h after contamination."}, "[2]": {"tested_on": "Corynebacterium xerosis", "format": "cell-based", "conditions": "for colony counts 24 h: 22° C.", "procedure": "as §1"}, "[3]": {"tested_on": "Escherichia coli", "format": "cell-based", "conditions": "for colony counts 24 h: 22° C.", "procedure": "as §1"}, "[4]": {"tested_on": "Propionibacterium acnes", "format": "cell-based", "conditions": "for colony counts 24 h: 22° C.", "procedure": "as §1"}, "[5]": {"tested_on": "Pseudomonas aeruginosa", "format": "cell-based", "conditions": "for colony counts 24 h: 22° C.", "procedure": "as §1"}, "[6]": {"tested_on": "Staphylococcus epidermidis", "format": "cell-based", "conditions": "for colony counts 24 h: 22° C.", "procedure": "as §1"}, "[7]": {"tested_on": "C. albicans", "format": "cell-based, Candida albicans", "conditions": "Erythrulose 0.4 wt.-%, 24 h after contamination, 22° C., 0 h count 19000", "procedure": "as §1"}, "[8]": {"tested_on": "S. aureus", "format": "cell-based, Staphylococcus aureus", "conditions": "Erythrulose 0.4 wt.-%, 24 h after contamination, 22° C., 0 h count 190000", "procedure": "as §1"}}, "data": [{"smiles": "O=C(CO)[C@H](O)CO", "note": "(racemic) [Erythrulose, erythrulose]", "values": [{"measurement": "colony counts 24 h", "setting": "[1]; Erythrulose 0.08% active, Aspergillus brasiliensis, 24 h, t0 count 10000", "result": 10, "unit": "cfu/ml"}, {"measurement": "colony counts 24 h", "setting": "[1]; Erythrulose 0.4 wt.-%, A. brasiliensis, 24 h after contamination, 0 h count 38000", "result": 330, "unit": "cfu/ml"}, {"measurement": "antimicrobial activity (in words)", "setting": "[2]; C. xerosis, very low concentration (table 2, 0.08%)", "result": "particularly and selectively active"}, {"measurement": "colony counts 24 h", "setting": "[2]; Erythrulose 0.08% active, Corynebacterium xerosis, 24 h, t0 count 250000", "result": 55, "unit": "cfu/ml"}, {"measurement": "colony counts 24 h", "setting": "[2]; Erythrulose 0.4 wt.-%, C. xerosis, 24 h after contamination, 0 h count 810000", "result": 0, "unit": "cfu/ml"}, {"measurement": "antimicrobial activity (in words)", "setting": "[3]; E. coli, very low concentration (table 2, 0.08%)", "result": "not active anymore"}, {"measurement": "colony counts 24 h", "setting": "[3]; Erythrulose 0.08% active, Escherichia coli, 24 h, t0 count 250000", "result": 530000, "unit": "cfu/ml"}, {"measurement": "colony counts 24 h", "setting": "[3]; Erythrulose 0.4 wt.-%, E. coli, 24 h after contamination, 0 h count 440000", "result": 280000, "unit": "cfu/ml"}, {"measurement": "colony counts 24 h", "setting": "[4]; Erythrulose 0.08% active, Propionibacterium acnes, 24 h, t0 count 310000", "result": 3300, "unit": "cfu/ml"}, {"measurement": "colony counts 24 h", "setting": "[4]; Erythrulose 0.4 wt.-%, P. Acnes, 24 h after contamination, 0 h count 500000", "result": 55000, "unit": "cfu/ml"}, {"measurement": "antimicrobial activity (in words)", "setting": "[4]; P. acnes, very low concentration (table 2, 0.08%)", "result": "good antimicrobial activity"}, {"measurement": "colony counts 24 h", "setting": "[5]; Erythrulose 0.08% active, Pseudomonas aeruginosa, 24 h, t0 count 450000", "result": 530000, "unit": "cfu/ml"}, {"measurement": "colony counts 24 h", "setting": "[5]; Erythrulose 0.4 wt.-%, P. aeruginosa, 24 h after contamination, 0 h count 810000", "result": 0, "unit": "cfu/ml"}, {"measurement": "antimicrobial activity (in words)", "setting": "[5]; P. aeruginosa, very low concentration (table 2, 0.08%)", "result": "not active anymore"}, {"measurement": "colony counts 24 h", "setting": "[6]; Erythrulose 0.08% active, Staphylococcus epidermidis, 24 h, t0 count 560000", "result": 0, "unit": "cfu/ml"}, {"measurement": "colony counts 24 h", "setting": "[6]; Erythrulose 0.4 wt.-%, S. epidermidis, 24 h after contamination, 0 h count 500000", "result": 0, "unit": "cfu/ml"}, {"measurement": "antimicrobial activity (in words)", "setting": "[6]; S. epidermidis, very low concentration (table 2, 0.08%)", "result": "particularly and selectively active"}, {"measurement": "colony counts 24 h", "setting": "[7]", "result": 78, "unit": "cfu/ml"}, {"measurement": "colony counts 24 h", "setting": "[8]", "result": 0, "unit": "cfu/ml"}]}]}
